# Columns and labels:
# [1] = molecular target: histamine activation of adenylate cyclase; assay: inhibition of histamine activation of adenylate cyclase in vesicles from guinea pig cerebral cortex; format: biochemical; conditions: 50 micromolar histamine, 3H-cyclic AMP synthesis
# Procedure: Finally, said antihistaminic properties can be shown in vitro, e.g., according to Chasin et al., J. Neurochem. 22, 1031 (1974). Vesicles from a cell free preparation of guinea pig cerebral cortex are preincubated with ^3 H-adenine to form endogenous ^3 H-adenosine triphosphate. The vesicles are then incubated with 50 micromolar histamine to activate ^3 H-cyclic adenosine monophosphate synthesis in the absence or presence of the test compound at a concentration between 0.01 and 100 micromolar. When said compound is active, it inhibits the histamine activation of adenylate cyclase. The IC50 represents the concentration at which histamine activation is inhibited by 50%.
# [2] = test system: avoidance behaviour in monkeys; assay: conditioned avoidance behaviour (lever press to avoid foot shock), monkeys; format: in vivo, squirrel monkeys; conditions: Primates, oral, read-out: oral dose that disrupts avoidance behaviour (decreases avoidance responses)
# Procedure: (§1) Each lever press postpones the shock for 30 seconds. Whenever the animal fails to press the lever once within said period, brief (0.5 sec.) shocks are delivered at 15 second intervals until the animal again presses the lever. Under control conditions the animals press the lever at a moderately steady rate and seldom receive more than five or six shocks during a 25-minute (rats) and up to 4-hour experimental session. Said compounds evaluated for neuroleptic activity, are administered to the animals 30, 90, 210 minutes prior to the experimental session and block the learned conditioned avoidance behaviour, manifested by a decrease in avoidance responding with a marked increase in shocks taken by the animal. Both the avoidance responses and failures (shocks received) are recorded separately for evaluation.
# (§2) Indicative of the antipsychotic utility of the compounds of this invention, e.g. the compound of example 1, namely 2-methyl-5-(4-methyl-1-piperazinyl)-11H-1,2,4-triazolo[2,3-c][1,3]benzodiazepine maleate, disrupts avoidance behaviour, e.g. decreases avoidance responses in rats and monkeys at an oral dose of about 1.0 mg/kg or lower.
# [3] = test system: avoidance behaviour in rats; assay: conditioned avoidance behaviour (lever press to avoid foot shock), rats; format: in vivo; conditions: Rattus norvegicus, oral, read-out: oral dose that disrupts avoidance behaviour (decreases avoidance responses)
# Procedure: as §1, §2
# [4] = test system: extrapyramidal side effects, e.g. dyskinesias and dystonias; assay: extrapyramidal side effects in the monkey; format: in vivo; conditions: at effective antipsychotic doses
compound,measurement,setting,value
"Cc1nc2n(n1)C(N1CCN(C)CC1)=Nc1ccccc1C2.O=C(O)/C=C\C(=O)O [Example 1, 2-methyl-5-(4-methyl-1-piperazinyl)-11H-1,2,4-triazolo[2,3-c][1,3]-benzodiazepine monomaleate]",IC50,[1],~300 nM
same,minimal effective dose,[2],≤ 1 mg/kg
same,minimal effective dose,[3],≤ 1 mg/kg
same,"extrapyramidal side effects, e.g. dyskinesias and dystonias",[4],essentially free of extrapyramidal side effects
